# Experimental data: US10173990B2, “URAT1 inhibitor” (Nippon Chemiphar Co., Ltd., priority 2014, dated 2019)
# Target: URAT1 (Homo sapiens (Human), UniProt Q96S37)
# Test: Uptake of [14C] uric acid using HEK-URAT1
# Assay type: cell-based
# Conditions: for remaining activity at 10 µM: 2 min, [14C] uric acid uptake into URAT1 stably expressed HEK293 cells, 10 μM test compound, 5 μM uric acid, 2 minutes, 37° C., uptake without test compound = 100%, read-out: % control (10 μM); for IC50: inhibition of [14C] uric acid uptake into URAT1 stably expressed HEK293 cells
# Protocol: More specifically, the test is performed by culturing URAT1 stably expressed HEK293 cells (HEK-URAT1) or HEK293 cells transfected with empty vector (HEK-mock) in a DMEM culture medium in an incubator. Subsequently, 1×10^5 cells are respectively seeded in 24-well culture plate coated with poly D-lysine and the uptake test is started after the culturing.
# The cells are washed with a solution for a test warmed to 37° C. and equilibrated. After a buffer solution is removed from the cells, 0.5 mL of an uptake solution containing 5 μM [^14C] uric acid with or without a test compound is respectively added and the cells are incubated. The cell uptake is stopped by adding a Hanks buffer solution and the cells are washed. The cells are lysed with 0.1 N sodium hydroxide and the radioactivity is measured using LSC6100 (Aloka Co., Ltd. Tokyo). Each uptake into HEK-URAT1 is acquired by subtracting uptake into HEK-mock cells from the value of HEK-URAT1, converting the result to per mg protein of cells, and setting the values from the uptake without the test compound as 100%.
# URAT1 stably expressed HEK293 cells (HEK-URAT1) or HEK293 cells transfected with empty vector (HEK-mock) were cultured in DMEM culture medium supplemented with 10% fetal bovine serum in an incubator under conditions of 5% carbon dioxide at 37° C. Subsequently, 1×10^5 cells were respectively seeded in 24-well culture plate coated with poly D-lysine and the uptake test was started after the culturing for 3 days.
# The uptake experiment of uric acid was performed at 37° C. […] After a buffer solution was removed from the cells, 0.5 mL of an uptake solution containing 5 μM [^14C] uric acid with or without a test compound was respectively added and the cells were incubated for 2 minutes. The cell uptake was stopped by adding an ice-cold Hanks buffer solution without chloride ions and the cells were washed 3 times. The cells were lysed with 0.1 N sodium hydroxide and the radioactivity was measured using LSC6100 (Aloka Co., Ltd. Tokyo). Each uptake into HEK-URAT1 was acquired by subtracting uptake into HEK-mock cells from the value of HEK-URAT1, converting the result to per mg protein of cells, and setting the value from uptake without the test compound as 100%. The uptake in each condition was performed in triplicate and each value was represented by average±standard deviation.
# The URAT1 inhibitory action was measured according to the same method as in Example 118.
# URAT1, sequence (Q96S37 whole entry): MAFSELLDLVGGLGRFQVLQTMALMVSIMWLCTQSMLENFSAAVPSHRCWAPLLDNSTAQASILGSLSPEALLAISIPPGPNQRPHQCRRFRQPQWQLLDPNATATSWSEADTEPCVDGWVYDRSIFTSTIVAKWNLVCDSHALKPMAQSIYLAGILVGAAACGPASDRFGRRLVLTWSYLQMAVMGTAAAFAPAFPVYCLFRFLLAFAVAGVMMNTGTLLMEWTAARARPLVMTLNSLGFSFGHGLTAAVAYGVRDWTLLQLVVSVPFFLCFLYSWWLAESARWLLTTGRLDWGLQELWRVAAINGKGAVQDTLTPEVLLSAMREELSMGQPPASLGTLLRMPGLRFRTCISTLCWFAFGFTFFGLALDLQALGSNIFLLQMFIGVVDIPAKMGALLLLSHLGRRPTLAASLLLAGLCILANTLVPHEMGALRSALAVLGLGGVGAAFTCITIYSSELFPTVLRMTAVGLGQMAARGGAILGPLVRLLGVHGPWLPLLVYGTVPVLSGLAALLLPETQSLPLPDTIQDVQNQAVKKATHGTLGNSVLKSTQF
SMILES,remaining activity at 10 µM,IC50
"CC(C)(Sc1ccc2ncsc2c1-c1ccc(OC(F)(F)F)cc1)C(=O)O [Example 64, 2-Methyl-2-[[7-[4-(trifluoromethoxy)phenyl]benzo[d]thiazol-6-yl]thio]propanoic acid]",30.1%,–
"N#Cc1ccc(-c2c(SC3(C(=O)O)CCC3)ccc3cnsc23)cc1 [Example 66, 1-[[7-(4-Cyanophenyl)benzo[d]isothiazol-6-yl]thio]cyclobutan-1-carboxylic acid]",1.8%,21.5 nM
"N#Cc1ccc(-c2c(SC3(C(=O)O)CCCC3)ccc3cnsc23)cc1 [Example 68, 1-[[7-(4-Cyanophenyl)benzo[d]isothiazol-6-yl]thio]cyclopentan-1-carboxylic acid]",< 0.1%,26.2 nM
"CC(C)C(Sc1ccc2cnsc2c1-c1ccc(C#N)cc1)C(=O)O (stereo not shown) [Example 70, 2-[[7-(4-Cyanophenyl)benzo[d]isothiazol-6-yl]thio]-3-methylbutanoic acid]",6.4%,–
"CC(C)(Sc1ccc2cnsc2c1-c1ccc([N+](=O)[O-])cc1)C(=O)O [Example 72, 2-Methyl-2-[[7-(4-nitrophenyl)benzo[d]isothiazol-6-yl]thio]propanoic acid]",< 0.1%,12 nM
"Cc1ccc(-c2c(SC(C)(C)C(=O)O)ccc3cnsc23)cc1 [Example 74, 2-Methyl-2-[[7-(p-tolyl)benzo[d]isothiazol-6-yl]thio]propanoic acid]",6.8%,–
"CC(C)c1ccc(-c2c(SC(C)(C)C(=O)O)ccc3cnsc23)cc1 [Example 76, 2-[[7-(4-Isopropylphenyl)benzo[d]isothiazol-6-yl]thio]-2-methylpropanoic acid]",12.7%,–
"CC(C)(Sc1ccc2cnsc2c1-c1ccc(C(F)(F)F)cc1)C(=O)O [Example 78, 2-Methyl-2-[[7-[4-(trifluoromethyl)phenyl]benzo[d]isothiazol-6-yl]thio]propanoic acid]",3.2%,104 nM
"CC(C)(Sc1ccc2cnsc2c1-c1ccc(OC(F)(F)F)cc1)C(=O)O [Example 80, 2-Methyl-2-[[7-[4-(trifluoromethoxy)phenyl]benzo[d]isothiazol-6-yl]thio]propanoic acid]",29.2%,–
"CC(C)(Sc1ccc2cnsc2c1-c1ccc(Cl)cc1)C(=O)O [Example 82, 2-[[7-(4-Chlorophenyl)benzo[d]isothiazol-6-yl]thio]-2-methylpropanoic acid]",< 0.1%,106 nM
"CC(C)(Sc1ccc2cnsc2c1-c1cccc(C#N)c1)C(=O)O [Example 84, 2-[[7-(3-Cyanophenyl)benzo[d]isothiazol-6-yl]thio]-2-methylpropanoic acid]",2.3%,205 nM
"Cc1cc(C#N)ccc1-c1c(SC(C)(C)C(=O)O)ccc2cnsc12 [Example 86, 2-[[7-(4-Cyano-2-methylphenyl)benzo[d]isothiazol-6-yl]thio]-2-methylpropanoic acid]",12.1%,–
"Cc1cc(-c2c(SC(C)(C)C(=O)O)ccc3cnsc23)ccc1C#N [Example 88, 2-[[7-(4-Cyano-3-methylphenyl)benzo[d]isothiazol-6-yl]thio]-2-methylpropanoic acid]",3.8%,–
"CC(C)(Sc1ccc2cnsc2c1-c1ccc(C#N)c(F)c1)C(=O)O [Example 90, 2-[[7-(4-Cyano-3-fluorophenyl)benzo[d]isothiazol-6-yl]thio]-2-methylpropanoic acid]",3.6%,161 nM
"Cc1nsc2c(-c3ccc(C#N)cc3)c(SC3(C(=O)O)CCC3)ccc12 [Example 112, 1-[[7-(4-Cyanophenyl)-3-methylbenzo[d]isothiazol-6-yl]thio]cyclobutan-1-carb oxylic acid]",13.8%,2430 nM
"CCC(CC)(Sc1ccc2cnsc2c1-c1ccc(C#N)cc1)C(=O)O [Example 113, 2-[[7-(4-Cyanophenyl)benzo[d]isothiazol-6-yl]thio]-2-ethylbutanoic acid]",< 0.1%,21 nM
"CC(C)(C)C(Sc1ccc2cnsc2c1-c1ccc(C#N)cc1)C(=O)O (stereo not shown) [Example 114, 2-[[7-(4-Cyanophenyl)benzo[d]isothiazol-6-yl]thio]-3,3-dimethylbutanoic acid]",5.8%,474 nM
"C/C(=C\C(=O)O)Sc1ccc2ccccc2c1-c1ccc(C#N)cc1 [Example 116, (E)-3-[[1-(4-cyanophenyl)naphthalen-2-yl]thio]-2-butenoic acid]",1.3%,25 nM
"N#Cc1ccc(-c2c(SC3(C(=O)O)CCCCC3)ccc3cnsc23)cc1 [Example 117, 1-[[7-(4-Cyanophenyl)benzo[d]isothazol-6-yl]thio]cyclohexan-1-carboxylic acid]",2.7%,296 nM
